Source: patent publication US20070149457A1, “Stable solid forms of enterostatin” (priority 2005, published 2007)

Tests used:
[1] = Humidity stress experiments at 58% relative humidity; assay type: physicochemical; details: for Observations after humidity stress: 58% RH; for Physical state after humidity stress: 58% relative humidity for 4 or 10 days
Description: A sample of this enterostatin acetate, 1-hydroxy-2-naphthoic acid co-complex of the invention was stressed at 58% relative humidity for 4 or 10 days.
A sample of this enterostatin chloride, 1-hydroxy-2-naphthoic acid co-complex of the invention was stressed at 58% relative humidity for 4 or 10 days.
A sample of each co-complex of the above examples was stressed at 58% relative humidity for either 4 or 10 days.
The cocrystal guests piperazine and 1-OH-2-napthoic acid were stressed at 58% relative humidity.

[2] = Moisture balance (weight change with relative humidity); assay type: physicochemical
Method: Analytical techniques discussed below were conventional unless otherwise specified. In particular, differential scanning calorimetry and moisture balance experiments were carried out according to standard techniques. NMR was in D2O.
FIG. 3 provides moisture balance of this enterostatin acetate, 1-hydroxy-2-naphthoic acid co-complex of the invention.

Observations after humidity stress ([1]; 14 days) | Observations after humidity stress ([1]; 4 days) | Physical state after humidity stress [1] | Observations after humidity stress ([1]; 10 days) | Compound | other results
Oil puddle |  |  |  | C1CNCCN1 [Piperazine, reference compound] | Observations after humidity stress ([1]; 5 days): Oil puddle
 |  |  | Tacky white goo | Enterostatin Sulfate, Hippuric Acid [Example 7] | 
 |  |  | Deliquesced | Enterostatin Chloride, Camphoric Acid [Example 5] | 

Second part, the compound before the results:

Compound | Observations after humidity stress ([1]; 14 days) | Observations after humidity stress ([1]; 4 days) | Physical state after humidity stress [1] | Observations after humidity stress ([1]; 10 days) | other results
Enterostatin Chloride, 1-Hydroxy-2-naphthoic Acid [Example 3] |  | Irregulars, chunks | remained solid |  | 
O=C(O)c1ccc2ccccc2c1O [1-OH-2-napthoic acid, reference compound] | Light brown chunks |  |  |  | Observations after humidity stress ([1]; 14 days, listed as 1-OH-2-napthoic): remained a solid
Enterostatin Acetate, 1-Hydroxy-2-naphthoic Acid [Example 2] |  | Bits, broken glass | remained solid |  | weight gain (moisture balance) ([2]; from 5 to 95% relative humidity): 22%; weight loss (moisture balance) ([2]; from 95 to 5% relative humidity): 24%
